# Reference: patent US20100087516A1, “ANTIBACTERIAL MACROLACTIN A THAT BACILLUS POLYFERMENTICUS KJS-2 PRODUCED IN” (priority 2007, published 2010)
# Tests used:
# Herpes simplex = settings: cited from earlier work
# [1] = tested on: Vancomycin-resistant enterococci; experiment: Inhibitory effect on VRE in liquid medium; assay type: cell-based; settings: for average absorbance (OD), Macrolactin A addition group: Average of 11 VRE strains
# Description: For the experiment with VRE, the strains were inoculated into a liquid medium upto a concentration of 1,000,000 cfu/mL and cultured either with (for strains to be tested) or without (for controls) Macrolactin A. […] […] After 4 hours of culture, the average absorbance of the control group was 0.76, while that of the group cultured with Macrolactin A was 0.19, showing significant difference between the two groups.
smiles,measurement,setting,value
CC1CCC/C=C/C=C/C(O)CC(O)C/C=C\C=C\C(O)C/C=C/C=C\C(=O)O1 (stereo not drawn) [Macrolactin A],antiviral activity against Herpes simplex,Herpes simplex,antiviral activity
same,"average absorbance (OD), Macrolactin A addition group","[1]; culture 4 hours, 50 μg/mL",0.19 OD
same,"average absorbance (OD), Macrolactin A addition group","[1]; culture 6 hours, 50 μg/mL",0.26 OD
same,"OD, Macrolactin A addition group","[1]; VRE1, culture 4 hours, 50 μg/mL",0.216 OD
same,"OD, Macrolactin A addition group","[1]; VRE1, culture 6 hours, 50 μg/mL",0.207 OD
same,"OD, Macrolactin A addition group","[1]; VRE2, culture 4 hours, 50 μg/mL",0.279 OD
same,"OD, Macrolactin A addition group","[1]; VRE2, culture 6 hours, 50 μg/mL",0.391 OD
same,"OD, Macrolactin A addition group","[1]; VRE3, culture 4 hours, 50 μg/mL",0.240 OD
same,"OD, Macrolactin A addition group","[1]; VRE3, culture 6 hours, 50 μg/mL",0.314 OD
same,"OD, Macrolactin A addition group","[1]; VRE4, culture 4 hours, 50 μg/mL",0.166 OD
same,"OD, Macrolactin A addition group","[1]; VRE4, culture 6 hours, 50 μg/mL",0.180 OD
same,"OD, Macrolactin A addition group","[1]; VRE5, culture 4 hours, 50 μg/mL",0.176 OD
same,"OD, Macrolactin A addition group","[1]; VRE5, culture 6 hours, 50 μg/mL",0.153 OD
same,"OD, Macrolactin A addition group","[1]; VRE6, culture 4 hours, 50 μg/mL",0.171 OD
same,"OD, Macrolactin A addition group","[1]; VRE6, culture 6 hours, 50 μg/mL",0.179 OD
same,"OD, Macrolactin A addition group","[1]; VRE7, culture 4 hours, 50 μg/mL",0.173 OD
same,"OD, Macrolactin A addition group","[1]; VRE7, culture 6 hours, 50 μg/mL",0.133 OD
same,"OD, Macrolactin A addition group","[1]; VRE8, culture 4 hours, 50 μg/mL",0.228 OD
same,"OD, Macrolactin A addition group","[1]; VRE8, culture 6 hours, 50 μg/mL",0.589 OD
same,growth of VRE8 and VRE11 in liquid medium,"[1]; VRE8 and VRE11, 50 μg/mL, lower sensitivity than the other strains",notable growth retardation
same,"OD, Macrolactin A addition group","[1]; VRE11, culture 4 hours, 50 μg/mL",0.236 OD
same,"OD, Macrolactin A addition group","[1]; VRE11, culture 6 hours, 50 μg/mL",0.507 OD
same,"OD, Macrolactin A addition group","[1]; VRE14, culture 4 hours, 50 μg/mL",0.078 OD
same,"OD, Macrolactin A addition group","[1]; VRE14, culture 6 hours, 50 μg/mL",0.050 OD
same,"OD, Macrolactin A addition group","[1]; VRE15, culture 4 hours, 50 μg/mL",0.145 OD
same,"OD, Macrolactin A addition group","[1]; VRE15, culture 6 hours, 50 μg/mL",0.131 OD
same,growth of VRE strains in liquid medium,"[1]; nine out of eleven strains tested, 50 μg/mL",remarkable growth inhibition
